Test results reported in patent publication US20220280486A1, “COMBINED CANCER THERAPY INVOLVING CHEMICAL ACTIVATION OF INTEGRINS AND TARGETED CELL IMMUNOTHERAPY” (The Regents of the University of California, priority 2019, published 2022).
Entries after “also recorded” stand apart in the source; their conditions may differ.

What was measured:
[1] = test system: complement-opsonized CD47+ mouse red blood cells; details: 1 mM manganese
Experimental: For the mouse red blood cell internalization assay, 30,000 RAW264.7 macrophages (ATCC) were plated in one well of a 96-well glass bottom MatriPlate (Brooks, MGB096-1-2-LG-L) between 12 and 24 hours prior to the experiment. Mouse red blood cells (RBCs) (Innovative Research, 88R-M001) were washed into PBS and stained with CSFE (Thermo Fisher, C34554) or Alexa Fluor 488 NHS Ester (ThermoFisher, A20000) for 1 hr at room temperature. RBCs were then opsonized with C3bi as previously described (Chow et al., 2004). Briefly, RBCs were incubated with anti-mouse IgM (MyBioSource, MBS524107) for 1 hour at 37° C. A portion of RBCs were separated for IgM controls, and the remaining RBCs were incubated with C5 deficient serum (Sigma-Aldrich, C1163) for 1 hour at 37° C. Macrophages were washed into serum-free HEPES imaging buffer and incubated with 150 ng/mL PMA and 1 mM Manganese or water. ˜1×10^6 RBCs were added to each well and engulfment was allowed to proceed for 1 hour in incubator. Cells were washed with PBS, unengulfed RBCs were lysed with water for 2 min, and cells were fixed with 4% PFA. Remaining non-lysed, non-engulfed RBCs were stained with APC anti-iC3b antibody (Biolegend, 1:200 dilution, 846106) for 30 minutes. Macrophages were stained with CellMask orange (ThermoFisher, 1:5,000 dilution) and Hoechst (Invitrogen, H3570, 1:1,000 dilution) for 15 minutes. […]

[2] = test system: RAW264.7 macrophages; assay: Engulfment of supported lipid bilayer-coated silica beads by macrophages (confocal quantification); format: cell-based; details: for engulfment of IgG-coated beads in the absence of CD47: manganese treatment, IgG titration
Experimental: 8.6×10^8 silica beads with a 5.02 μm diameter (10 μl of 10% solids, Bangs Labs, Catalog #SS05N) were washed three times with PBS, mixed with 1 mM SUVs in PBS and incubated at room temperature for 0.5-2 hours with end-over-end mixing to allow for bilayer formation. Beads were then washed three times with PBS to remove excess SUVs and incubated in 100 μl of 0.2% casein (Sigma, catalog #C5890) in PBS for 15 min before protein coupling. […] Purified CD47^ext-His10 was added at […]. Proteins were coupled to the bilayer for 1 hour at room temperature with end-over-end mixing.
Unless otherwise noted, macrophages remained in culture media (DMEM with 10% heat inactivated serum) throughout the experiment. ˜8×10^5 beads were added to well and engulfment was allowed to proceed for 30 min. Cells were fixed with 4% PFA and stained with CellMask (ThermoFisher, catalog #C10045) without membrane permeabilization to label cell boundaries.

[3] = test system: L1210 murine leukemia cells; assay: Whole cell internalization assay, 8 hr timelapse imaging; format: cell-based, mouse; details: 100 μM manganese, bone marrow derived macrophages
Experimental: For timelapse imaging, 30,000 primary bone marrow derived macrophages infected with GFP-CAAX were plated in a 96-well glass bottom MatriPlate (Brooks, Catalog #MGB096-1-2-LG-L). 2 hours prior to imaging, cells were washed into serum-free, phenol free DMEM for imaging. Manganese (SigmaAldrich, M8054) was added at 100 μM 30 min prior to imaging. When indicated, CD47 function-blocking antibody clone miap301 (Biolegend, 127520) was used at […]. 100,000 H2B-mCherry expressing L1210 cells were added and the co-culture was imaged for 8 hr.

[Mn+2] [manganese, Manganese]
engulfment of control IgM-treated RBCs [1]: not control IgM-treated RBCs | engulfment of complement-opsonized RBCs ([1]; RAW264.7 macrophages, 1 hour): dramatically increased engulfment of complement-opsonized RBCs | engulfment of IgG beads with versus without CD47 ([2]; macrophages treated with 1 mM manganese, beads with IgG and CD47 or non-signaling CD47 F37D,T115K): engulfed beads with a similar efficiency whether or not CD47 was conjugated to the supported lipid bilayer | engulfment of IgG-coated beads in the absence of CD47 [2]: did not trigger bead engulfment on its own or dramatically enhance engulfment of IgG-coated beads in the absence of CD47 | engulfment of IgG-coated beads in the absence of CD47 ([2]; listed as Mn2+): did not dramatically enhance engulfment | bead engulfment triggered on its own ([2]; manganese, no IgG): did not trigger bead engulfment on its own | macrophages engulfing a cancer cell [3]: increased the ability of macrophages to engulf cancer cells; also recorded: allowed for engulfment of whole cancer cells; also recorded: can drive engulfment of whole cancer cells
